These results are taken from US20190375708A1 (VenatoRx Pharmaceuticals, Inc., priority 2018, published 2019).

The subject of data set [1] is HBV replication in HepAD38 cells. In words: Anti-HBV replication assay in HepAD38 cells (QPCR of extracellular HBV DNA). The class given is cell-based, HBV (genotype D, serotype ayw). Conditions: Hepatitis B virus, 168 h, 7 days incubation, extracellular HBV DNA by QPCR, read-out: Anti-HBV EC50. The method, then:
The anti-HBV activity of the Capsid Assembly Modulators (CAMs) was evaluated in a cell based assay utilizing the human hepatoma cell line HepAD38 (Ladner, S K., et al., 1998). HepAD38 cells were derived from the parental line, HepG2, that were stably transfected with a construct containing an HBV genome (genotype D, serotype ayw) under the control of a tetracycline repressible CMV promoter. Upon removal of tetracycline, viral pre-genomic RNA (pgRNA) and mRNAs are expressed and infectious viral particles are assembled and secreted into the culture medium providing a reliable, robust system to measure multiple steps of the HBV life cycle. Disruption of capsid formation results in reduced levels of DNA-containing virus particles that are released into the culture supernatant. To quantify the effect of CAMs on HBV replication, we developed a sensitive QPCR-based assay that measures extracellular HBV DNA levels upon treatment of HepAD38 cells with various concentrations of test compounds.
HepAD38 cells were maintained in DMEM/F12 medium containing 10% FBS, 400 μg/mL G418 and 0.3 μg/mL tetracycline (tet+ media) to maintain repression of HBV replication. To evaluate each compound, HepAD38 cells were seeded into 24-well collagen coated culture plates (Corning BioCoat) at a density of 200,000 cells per well in 1 mL of medium without tetracycline (tet-media) and allowed to adhere overnight at 37° C., 5% CO2 in a humidified incubator. The following day, media was refreshed and a dose range of each compound was prepared by performing 1 log10 serial dilutions in 100% DMSO at 200× the desired assay concentration. Dilutions were then added to the cells resulting in a final dose range of 1 μM to 10 μM and the plates were returned to the incubator. Following 7 days of incubation, culture supernatants were harvested and HBV DNA levels were evaluated by QPCR and compared to the vehicle treated control wells (i.e. DMSO alone).
To quantify HBV DNA levels, cell culture supernatants were diluted 1:10 in sterile, nuclease-free water (Gibco). The diluted supernatants were subsequently added to a PCR master mix containing 1× Roche Light Cycler Master Mix, 0.5 μM forward primer, 0.5 μM reverse primer (Fwd: 5′-[…] (SEQ ID NO 1); Rev: 5′-[…] (SEQ ID NO 2)), 0.2 μM Roche Universal Probe Library Probe 25. The volume was brought to 20 μL with nuclease-free water and amplification of the HBV target sequence was performed using a Roche LightCycler 480 QPCR instrument. PCR extended out to 45 cycles with each cycle consisting of a denaturation step at 95° C. for 10 sec., followed by an annealing step at 60° C. for 10 sec. and a brief extension step at 72° C. for 1 sec.
Extracellular HBV DNA levels, expressed in copies/mL, were determined by comparison to a standard curve (10^2-10^9 copies/mL) using the Roche LightCycler analysis software. These values were subsequently converted to percent inhibition of HBV replication by dividing the HBV DNA levels in the experimental samples with those obtained from the vehicle control (˜1-2×10^5 copies/mL). Potency, expressed as an EC50 (the effective concentration required to inhibit 50% of HBV replication), was calculated from the dose-response curve using a 4-parameter non-linear regression analysis (GraphPad Prism). The nucleoside analog inhibitor entecavir was used as a positive control to validate each assay run. The EC50 value of entecavir in the HepAD38 assay was 0.5 nM, as previously reported in the literature.

Data set [2] is described as follows: In vitro cytotoxicity assay (MTT cell viability) in HepG2 cells. Format: cell-based, human. Conditions: human. The method, then: To evaluate antiviral selectivity, the cytotoxic activity of each compound was determined using a standard cell viability assay performed on the parental HepG2 cell line. Cell viability was determined by measuring the conversion of 3-(4,5-dimethylthiazol-2-yl)-2,5-diphenyltetrazolium bromide (MTT) to the insoluble formazan salt crystal that occurs in live cells. Briefly, HepG2 cells were seeded in 96-well plates at a density of 20,000 cells per well in EMEM+10% FBS (complete growth medium) and allowed to adhere overnight in a 37° C., 5% CO2 humidified incubator. The next day, test agents were prepared by performing 8 half-log10 serial dilutions in 100% DMSO at 200× the final desired concentration in the assay. Compounds were tested over a range of concentrations from 30 μM to 1.0 nM in the assay. HepG2 cells were incubated in the presence of various concentrations of CAMs for 7 days in a 37° C., 5% CO2 humidified incubator. At the completion of the 7-day incubation period, MTT reagent was added to each well and the mixture was incubated for an additional 3-4 hours. At the completion of the incubation period, all wells were aspirated to remove the culture medium. The formazan crystals were solubilized from the cell monolayers with 100% DMSO. Plates were briefly mixed on an orbital shaker and absorbance was measured at 492 nm using a Perkin-Elmer EnVision multi-label plate reader. All absorbance values were converted to a percentage of the signal obtained from the vehicle treated controls. Absorbance values at 492 nm are directly proportional to the number of viable cells present in the sample. A CC50 value (cytotoxic concentration that results in loss of 50% cell viability) was calculated from the dose-response curve by 4-parameter, non-linear regression analysis using the GraphPad Prism software. The positive control compound, staurosporine, reduced the viability of HepG2 cells in a dose-dependent manner (CC50=100 nM).

pEC50: −log10 of the molar value.

The pEC50 is the negative decadic logarithm of the EC50, by convention in mol/L. The CC50 is the concentration giving 50% cytotoxicity. The low end stands for harm at low concentration, the high end for better tolerance by the cells.

For the compound `Cc1cc(NC(=O)c2c(C)c(C(=O)C(=O)N[C@@H](C(=O)O)[C@H](C)O)n(C)c2C)ccc1F` [Example 35, (2-(4-((4-fluoro-3-methylphenyl)carbamoyl)-1,3,5-trimethyl-1H-pyrrol-2-yl)-2-oxoacetyl)-D-threonine], the negative logarithm of the EC50 (pEC50) in data set [1] was under 6.00. For the same compound, the CC50 at 7 days in data set [2] was over 30 µM.

With `Cc1cc(NC(=O)c2c(C)c(C(=O)C(=O)NC(C)(C)C(N)=O)n(C)c2C)ccc1F` [Example 36, 5-(2-((1-amino-2-methyl-1-oxopropan-2-yl)amino)-2-oxoacetyl)-N-(4-fluoro-3-methylphenyl)-1,2,4-trimethyl-1H-pyrrole-3-carboxamide], the pEC50 in data set [1] is over 7.30. The same compound registered a CC50 at 7 days in data set [2] of over 30 µM.

For the compound `Cc1cc(NC(=O)c2c(C)c(C(=O)C(=O)NC3(C(N)=O)CC3)n(C)c2C)ccc1F` [Example 37, 5-(2-((1-carbamoylcyclopropyl)amino)-2-oxoacetyl)-N-(4-fluoro-3-methylphenyl)-1,2,4-trimethyl-1H-pyrrole-3-carboxamide], in data set [1], the pEC50 is over 7.30. Moreover, the CC50 at 7 days in data set [2] is over 30 µM.

Take `Cc1cc(NC(=O)c2c(C)c(C(=O)C(=O)NC3(C(N)=O)CCCC3)n(C)c2C)ccc1F` [Example 38, 5-(2-((1-carbamoylcyclopentyl)amino)-2-oxoacetyl)-N-(4-fluoro-3-methylphenyl)-1,2,4-trimethyl-1H-pyrrole-3-carboxamide]: the pEC50 in data set [1] is over 7.30. In data set [2], the half-maximal cytotoxic concentration (CC50) at 7 days was over 30 µM.

On to `Cc1cc(NC(=O)c2c(C)c(C(=O)C(=O)N[C@H](C(N)=O)C(C)(C)C)n(C)c2C)ccc1F` [Example 39, (S)-5-(2-((1-amino-3,3-dimethyl-1-oxobutan-2-yl)amino)-2-oxoacetyl)-N-(4-fluoro-3-methylphenyl)-1,2,4-trimethyl-1H-pyrrole-3-carboxamide], for which, in data set [1], the pEC50 is 6.00 to 6.30. This compound gave a 50% cytotoxic concentration (CC50) at 7 days in data set [2] of over 30 µM.

As for `Cc1cc(NC(=O)c2c(C)c(C(=O)C(=O)N[C@@H](C(N)=O)C(C)(C)C)n(C)c2C)ccc1F` [Example 40, (R)-5-(2-((1-amino-3,3-dimethyl-1-oxobutan-2-yl)amino)-2-oxoacetyl)-N-(4-fluoro-3-methylphenyl)-1,2,4-trimethyl-1H-pyrrole-3-carboxamide], in data set [1], the pEC50 was 6.00 to 6.30. The CC50 at 7 days in data set [2] was 0.5 to 4.99 µM.

`Cc1cc(NC(=O)c2c(C)c(C(=O)C(=O)N[C@@H](CO)C(N)=O)n(C)c2C)ccc1F` [Example 41, (S)-5-(2-((1-amino-3-hydroxy-1-oxopropan-2-yl)amino)-2-oxoacetyl)-N-(4-fluoro-3-methylphenyl)-1,2,4-trimethyl-1H-pyrrole-3-carboxamide]: in data set [1], the pEC50 was over 7.30. Further, the CC50 at 7 days in data set [2] fell in the range of 0.5 to 4.99 µM.

On to `Cc1cc(NC(=O)c2c(C)c(C(=O)C(=O)N[C@H](C(N)=O)[C@@H](C)O)n(C)c2C)ccc1F` [Example 42, 5-(2-(((2S,3R)-1-amino-3-hydroxy-1-oxobutan-2-yl)amino)-2-oxoacetyl)-N-(4-fluoro-3-methylphenyl)-1,2,4-trimethyl-1H-pyrrole-3-carboxamide], for which the pEC50 in data set [1] was over 7.30. Also, the CC50 at 7 days in data set [2] is over 30 µM.

On to `Cc1cc(NC(=O)c2c(C)c(C(=O)C(=O)NC3(C(N)=O)C4CC5CC(C4)CC3C5)n(C)c2C)ccc1F` (stereo not shown) [Example 43, 5-(2-(((1r,3r,5r,7r)-2-carbamoyladamantan-2-yl)amino)-2-oxoacetyl)-N-(4-fluoro-3-methylphenyl)-1,2,4-trimethyl-1H-pyrrole-3-carboxamide], for which the pEC50 in data set [1] is over 7.30. The compound further came in with a half-maximal cytotoxic concentration (CC50) at 7 days in data set [2] of 0.5 to 4.99 µM.

For the compound `Cc1cc(NC(=O)c2c(C)c(C(=O)C(=O)N[C@@H](C(N)=O)[C@H](C)O)n(C)c2C)ccc1F` [Example 44, 5-(2-(((2R,3S)-1-amino-3-hydroxy-1-oxobutan-2-yl)amino)-2-oxoacetyl)-N-(4-fluoro-3-methylphenyl)-1,2,4-trimethyl-1H-pyrrole-3-carboxamide], the pEC50 in data set [1] was over 7.30. In data set [2], this compound had a cytotoxic concentration (CC50) at 7 days of over 30 µM.

As to `COC(=O)[C@@H](NC(=O)C(=O)c1c(C)c(C(=O)Nc2ccc(F)c(C)c2)c(C)n1C)[C@H](C)O` [Example 45, methyl (2-(4-((4-fluoro-3-methylphenyl)carbamoyl)-1,3,5-trimethyl-1H-pyrrol-2-yl)-2-oxoacetyl)-L-allothreoninate], in data set [1], the pEC50 is 6.00 to 6.30. The compound further returned a CC50 at 7 days in data set [2] of over 30 µM.

Regarding `COC(=O)[C@H](NC(=O)C(=O)c1c(C)c(C(=O)Nc2ccc(F)c(C)c2)c(C)n1C)[C@@H](C)O` [Example 46, methyl (2-(4-((4-fluoro-3-methylphenyl)carbamoyl)-1,3,5-trimethyl-1H-pyrrol-2-yl)-2-oxoacetyl)-D-allothreoninate], in data set [1], the negative logarithm of the EC50 (pEC50) is over 7.30. The CC50 at 7 days in data set [2] is over 30 µM.

Turning to `Cc1cc(NC(=O)c2c(C)c(C(=O)C(=O)N3CCC(O)CC3)n(C)c2C)ccc1F` [Example 47, N-(4-fluoro-3-methylphenyl)-5-(2-(4-hydroxypiperidin-1-yl)-2-oxoacetyl)-1,2,4-trimethyl-1H-pyrrole-3-carboxamide], the pEC50 in data set [1] is 6.30 to 7.30. In data set [2], the CC50 at 7 days lay within 0.5 to 4.99 µM.

For the compound `Cc1cc(NC(=O)c2c(C)c(C(=O)C(=O)N3[C@@H]4CC[C@H]3C[C@H](O)C4)n(C)c2C)ccc1F` [Example 48, N-(4-fluoro-3-methylphenyl)-5-(2-((1R,3s,5S)-3-hydroxy-8-azabicyclo[3.2.1]octan-8-yl)-2-oxoacetyl)-1,2,4-trimethyl-1H-pyrrole-3-carboxamide], the pEC50 in data set [1] is 6.30 to 7.30. Besides, the CC50 at 7 days in data set [2] is over 30 µM.

Consider `Cc1cc(NC(=O)c2c(C)c(C(=O)C(=O)N3CCc4nc(N)sc4C3)n(C)c2C)ccc1F` [Example 49, 5-(2-(2-amino-6,7-dihydrothiazolo[5,4-c]pyridin-5(4H)-yl)-2-oxoacetyl)-N-(4-fluoro-3-methylphenyl)-1,2,4-trimethyl-1H-pyrrole-3-carboxamide], for which, in data set [1], the negative logarithm of the EC50 (pEC50) is 6.30 to 7.30. In addition, the cytotoxic concentration (CC50) at 7 days in data set [2] was over 30 µM.

As to `Cc1cc(NC(=O)c2c(C)c(C(=O)C(=O)NC(C)(C)CO)n(CCO)c2C)ccc1F` [Example 50, N-(4-fluoro-3-methylphenyl)-5-(2-((1-hydroxy-2-methylpropan-2-yl)amino)-2-oxoacetyl)-1-(2-hydroxyethyl)-2,4-dimethyl-1H-pyrrole-3-carboxamide], the pEC50 in data set [1] was under 6.00. The compound also displayed a cytotoxic concentration (CC50) at 7 days in data set [2] of over 30 µM.

Turning to `Cc1cc(NC(=O)c2c(C)c(C(=O)C(=O)N[C@H](C(=O)O)[C@H](C)O)n(C)c2C)ccc1F` [Example 51, (2-(4-((4-fluoro-3-methylphenyl)carbamoyl)-1,3,5-trimethyl-1H-pyrrol-2-yl)-2-oxoacetyl)-L-allothreonine], the negative logarithm of the EC50 (pEC50) in data set [1] is 6.30 to 7.30. In data set [2], the cytotoxic concentration (CC50) at 7 days is over 30 µM.
